Like-named read-outs stand apart in the source and are kept apart here.
Key:
[1] = system: vessels of the glans penis; assay: Vasodilatory action, into the corpus cavernosum versus topical; type: in vivo; conditions: external application; compared with misoprostol
Excerpt: This is due to the differences in the mechanism of action on erectile function between misoprostol and other vasodilators (e.g. alprostadil): misoprostol applied topically can penetrate into the corpora cavernosa and can act on the smooth muscle fibers of the vessels, compared to other vasodilators. Further, its major site of action is on the vessels of the glans penis, and to a lesser extent, the prepuce.

Solubility in water = type: physicochemical
[2] = system: human male subjects having ED; assay: Clinical trials in human male subjects having ED; type: in vivo
Experimental: Subjects were 52 men aged 22-67 years, with ED of various causes. […] In all trials with these subjects, the following methods were applied successively for from a few days to 4 weeks: intracavernosal injection of 1.0 ml papaverine solution, 40 μγ/ml; […]; […]; topical application to the glans penis 0.08 to 0.1 ml, misoprostol gel 1000 μg/ml; intraurethral application of 0.08 to 0.1 ml misoprostol gel 1000 μg/ml; and topical application to the glans penis 0.1 ml. Gel of placebo.
In the tests using either the gel or cream containing about […] of misoprostol per 0.1 ml, the formulation was applied by the patients themselves using their finger and a few retroactive movements of the prepuce on the glans of penis until the ointment was completely absorbed. The intraurethral gel was instilled by the patients with help of a thin syringe and a lubricating medium (propylene glycol or glycerin) to facilitate insertion of the syringe.
In some patients with venous leak problems, a bandage tourniquet with a rubber band (or condom) on the base of the penis was applied 15-20 minutes after application of misoprostol. This method was particularly effective. […] In various subjects with ED due to one of several different causes, “pelvic exercises” were recommended (Kegel exercises) while the erection was developing. […] All tests were performed in the clinic without visual or any other type of stimulation.

[3] = cited from earlier work
[4] = Single high dosage, systemic undesirable effects (Example 9); conditions: in the presence of α-cyclodextrin
[5] = human, in vivo
[6] = at 35° C.; cited from earlier work
[7] = total (N = 52), externally applied gel, 80-100 μg
[8] = total (N = 52), intraurethral applied gel, 80-100 μg
[9] = total (N = 52), intracavernosal injection, 0.5 ml of 1.0 mg/ml
[10] = total (N = 52), intraurethral ointment or γ-cyclodextrin complex in K-Y jelly, 1000 μg PGE1 in 0.1 ml
[11] = total (N = 52), intracavernosal injection, 1 ml of 4%

CCCCC(C)(O)C/C=C/[C@H]1[C@H](O)CC(=O)[C@@H]1CCCCCCC(=O)O (mixture of isomers) [misoprostol acid]
topical vasodilation [1]: equivalent strong topical vasodilation

CCCCC(C)(O)C/C=C/[C@H]1[C@H](O)CC(=O)[C@@H]1CCCCCCC(=O)OC (mixture of isomers) [misoprostol, (11a 13E)-(±)-11,16-dihydroxy-16-methyl-9-oxoprost-13-en-1-oic acid methyl ester]
solubility in water (in words) (Solubility in water): water soluble | allergic or other topical reaction ([2]; application to glans penis or urethra): No allergic or any other topical reaction was reported except for redness of the glans | subjects having a positive pharmacological outcome ([2]; hormonal ED (N = 1), externally applied gel, 80-100 μg): 1 | subjects having a positive pharmacological outcome ([2]; hormonal ED (N = 1), intraurethral applied gel, 80-100 μg): 1 | subjects having a positive pharmacological outcome ([2]; neurogenic ED (N = 5), externally applied gel, 80-100 μg): 4 | subjects having a positive pharmacological outcome ([2]; neurogenic ED (N = 5), intraurethral applied gel, 80-100 μg): 5 | subjects having a positive pharmacological outcome ([2]; psychogenic ED (N = 15), externally applied gel, 80-100 μg): 13 | subjects having a positive pharmacological outcome ([2]; psychogenic ED (N = 15), intraurethral applied gel, 80-100 μg): 14 | percent of subjects having a positive pharmacological outcome [2, 7]: 62% | subjects having a positive pharmacological outcome [2, 7]: 32 | percent of subjects having a positive pharmacological outcome [2, 8]: 73% | subjects having a positive pharmacological outcome [2, 8]: 38 | subjects having a positive pharmacological outcome ([2]; undetermined etiology (N = 7), externally applied gel, 80-100 μg): 4 | subjects having a positive pharmacological outcome ([2]; undetermined etiology (N = 7), intraurethral applied gel, 80-100 μg): 5 | subjects having a positive pharmacological outcome ([2]; vascular ED (N = 24), externally applied gel, 80-100 μg): 10 | subjects having a positive pharmacological outcome ([2]; vascular ED (N = 24), intraurethral applied gel, 80-100 μg): 13 | undesirable effect of oral therapy [3]: male impotence | single higher dose allowed, undesirable effects reduced or eliminated [4]: > 2000 micrograms | single high dose that can cause systemic undesirable effects (fatigue, erythema and diarrhea) [5]: > 1000 micrograms | single high dose that can cause systemic undesirable effects (fatigue, erythema and diarrhea) ([5]; male): > 1800 micrograms

CCCCC[C@H](O)/C=C/[C@H]1[C@H](O)CC(=O)[C@@H]1CCCCCCC(=O)O [alprostadil]
subjects having a positive pharmacological outcome ([2]; hormonal ED (N = 1), intracavernosal injection, 0.5 ml of 1.0 mg/ml): 1 | subjects having a positive pharmacological outcome ([2]; hormonal ED (N = 1), intraurethral ointment or γ-cyclodextrin complex in K-Y jelly, 1000 μg PGE1 in 0.1 ml): 0 | subjects having a positive pharmacological outcome ([2]; neurogenic ED (N = 5), intracavernosal injection, 0.5 ml of 1.0 mg/ml): 4 | subjects having a positive pharmacological outcome ([2]; neurogenic ED (N = 5), intraurethral ointment or γ-cyclodextrin complex in K-Y jelly, 1000 μg PGE1 in 0.1 ml): 1 | subjects having a positive pharmacological outcome ([2]; psychogenic ED (N = 15), intracavernosal injection, 0.5 ml of 1.0 mg/ml): 11 | subjects having a positive pharmacological outcome ([2]; psychogenic ED (N = 15), intraurethral ointment or γ-cyclodextrin complex in K-Y jelly, 1000 μg PGE1 in 0.1 ml): 9 | percent of subjects having a positive pharmacological outcome [2, 9]: 60% | subjects having a positive pharmacological outcome [2, 9]: 31 | percent of subjects having a positive pharmacological outcome [2, 10]: 31% | subjects having a positive pharmacological outcome [2, 10]: 16 | subjects having a positive pharmacological outcome ([2]; undetermined etiology (N = 7), intracavernosal injection, 0.5 ml of 1.0 mg/ml): 5 | subjects having a positive pharmacological outcome ([2]; undetermined etiology (N = 7), intraurethral ointment or γ-cyclodextrin complex in K-Y jelly, 1000 μg PGE1 in 0.1 ml): 1 | subjects having a positive pharmacological outcome ([2]; vascular ED (N = 24), intracavernosal injection, 0.5 ml of 1.0 mg/ml): 10 | subjects having a positive pharmacological outcome ([2]; vascular ED (N = 24), intraurethral ointment or γ-cyclodextrin complex in K-Y jelly, 1000 μg PGE1 in 0.1 ml): 5 | solubility in water [6]: 8000 micrograms/100 ml

COc1ccc(Cc2nccc3cc(OC)c(OC)cc23)cc1OC [papaverine]
subjects having a positive pharmacological outcome ([2]; hormonal ED (N = 1), intracavernosal injection, 1 ml of 4%): 0 | subjects having a positive pharmacological outcome ([2]; neurogenic ED (N = 5), intracavernosal injection, 1 ml of 4%): 2 | subjects having a positive pharmacological outcome ([2]; psychogenic ED (N = 15), intracavernosal injection, 1 ml of 4%): 10 | percent of subjects having a positive pharmacological outcome [2, 11]: 42% | subjects having a positive pharmacological outcome [2, 11]: 22 | subjects having a positive pharmacological outcome ([2]; undetermined etiology (N = 7), intracavernosal injection, 1 ml of 4%): 3 | subjects having a positive pharmacological outcome ([2]; vascular ED (N = 24), intracavernosal injection, 1 ml of 4%): 7
